Results reported in patent US20170239173A1, “TRANSDERMAL ABSORPTION ENHANCER AND TRANSDERMAL ABSORPTION ENHANCEMENT AID” (ASAHI KASEI KABUSHIKI KAISHA, priority 2014, published 2017).
Read-outs that look alike come from different tables or passages of the source. One block for each molecule: values may come before it.

Tests used:
[1] = Franz cell test of MZR preparations, artificial skin; details: equimolar salt of choline with the acidic compound b) as enhancer
Yucatan Micropig Skin = details: Non Patent Literature 1, at maximum; cited from earlier work
[2] = Solubility / state of the active ingredient in the preparation (equimolar salt or enhancer); format: physicochemical; details: solubility of MZR in the equimolar salt of the basic compound a) with isostearic acid or linoleic acid
[3] = system: hairless mouse skin (Laboskin)
[4] = cited from earlier work
[5] = cited from earlier work; remark: listed apart in the source
[6] = subcutaneous administration to rats; cited from earlier work
[7] = partition coefficient between water and 1-octanol; cited from earlier work

Transdermal penetrability of MZR (artificial skin) [1]: Penetrated
Compound: CC(O)C(=O)O (racemic) [DL-lactic acid]

Compound: Nc1nc2c(ncn2COCCO)c(=O)[nH]1 [ACV, acyclovir]
transdermal penetration amount of ACV for 24 hours (Yucatan Micropig Skin): ≤ 0.5 μg/cm^2

Compound: O=C(O)c1ccccc1 [Benzoic acid]
Transdermal penetrability of MZR (artificial skin) [1]: Penetrated

Compound: CC(O)CNCC(C)O (centres unmarked) [DIPA]
MZR dissolution [2]: Insoluble
Transdermal penetrability of MZR [3]: Not penetrated

Transdermal penetrability of MZR (hairless mouse) [3]: Penetrated
Compound: CCCCCCCCCCCC(=O)O [Dodecanoic acid]
Water solubility ([4]; 20° C.): 5.5 mg/100 g (20° C.)
pKa [5]: 5.30

Compound: O=C(O)/C=C/C(=O)O [Fumaric acid]
Water solubility ([4]; 25° C.): 0.63 g/100 mL-water

Compound: O=C(O)CCCC(=O)O [Glutaric acid]
Water solubility ([4]; 20° C.): 430 g/L (20° C.)
Transdermal penetrability of MZR (artificial skin) [1]: Penetrated
pKa [5]: 4.34
pKa ([5]; second value): 5.42

Transdermal penetrability of MZR (artificial skin) [1]: Penetrated
Compound: O=C(O)CO [Glycolic acid]

MZR dissolution [2]: Dissolved
Transdermal penetrability of MZR [3]: Penetrated
Compound: N=C(N)N [Guanidine]

MZR dissolution [2]: Dissolved
Transdermal penetrability of MZR [3]: Penetrated
Compound: NCCc1c[nH]cn1 [Histamine]

Compound: CC(C)CCCCCCCCCCCCCCC(=O)O [Isostearic acid]
pKa [5]: 4.90

Compound: NC(=O)c1ncn([C@@H]2O[C@H](CO)[C@@H](O)[C@H]2O)c1O [MZR, mizoribine]
no-observed-adverse-effect level (NOAEL) [6]: 5 mg/kg
Log P [7]: −1.9
rate of penetration ([3]; hairless, mouse): approximately 30%

Compound: O=C(O)/C=C\C(=O)O [Maleic acid]
Water solubility ([4]; 25° C.): 78 g/100 mL (25° C.)

Transdermal penetrability of MZR (hairless mouse) [3]: Penetrated
Compound: CCCCCCCCCCCCCC(=O)O [Myristic acid]
Water solubility ([4]; at 18° C.): <0.1 g/100 mL at
pKa [5]: 4.90

Transdermal penetrability of MZR (hairless mouse) [3]: Penetrated
Compound: CCCCCCCC/C=C\CCCCCCCC(=O)O [Oleic acid]
Water solubility ([4]; in words): negligible

Compound: CCCCCCCCCCCCCCCC(=O)O [Palmitic acid]
pKa [5]: 4.75

Compound: CCCCCCCCCCCCCCCCCC(=O)O [Stearic acid]
pKa [5]: 4.75

Transdermal penetrability of MZR (hairless mouse) [3]: Not penetrated
Compound: COc1cc(C(O)C(=O)O)ccc1O (centres unmarked) [Vanillylmandelic acid]
Water solubility ([4]; H2O): H2O: ~50 mg/mL
pKa [5]: 3.11

Compound: C[N+](C)(C)CCOP(=O)([O-])OC[C@H](O)CO [αGPC]
MZR dissolution [2]: Insoluble
Transdermal penetrability of MZR [3]: Not penetrated
